According to patent publication US20240166658A1, “PORPHYRIN DERIVATIVES AND USES THEREOF” (University of Tasmania, priority 2021, published 2024):

Experiments:
[1] = Preliminary binding study, colour change
Description: Preliminary binding studies were undertaken by combining an amide linked porphyrin host molecule (9) and tetrabutylammonium perfluorooctanoate (TBAPFO) in dichloromethane.

Filter paper tests = conditions: aqueous PFOA in the <5 ppm range, dipped or dropped
Method: Sensor molecule (9) was dissolved in dichloromethane and filter papers were soaked in the solution. The papers were removed and dried by evaporation. The paper was then dipped into aqueous solutions of PFOA or aqueous solutions were dropped onto the paper. […] The aqueous solutions of PFOA tested were in the <5 ppm range.

[2] = GenX, water and HDPP tube experiment (biphasic)
Method: A solution of medium chain amide host (2.04×10^−5 M) in dichloromethane was added to an aqueous solution of GenX™ (5 ppm, 1.51×10^−5 M 50 mL) in a volumetric flask. […] Both phases were then transferred via pouring to a HDPP tube. The green colour persisted initially but began to reduce with time.

Soil tests = conditions: 5 g dried soil, 20 mL host in dichloromethane, no pre-treatment or pre-concentration
Method: Soil was taken front the top 15 cm of the garden bed outside the Chemistry Building at the University of Tasmania and dried in the oven at 40° C. for approximately 60 hours. This soil was then spiked with 10 ppm PFOA: Two 50 g dried soil samples were transferred into two separate 1 L polypropylene containers. One sample was combined with a dichloromethane-PFOA solution (200 mL of 6×10^−6 M PFOA in DCM) and the other was combined with only dichloromethane (200 mL). The solutions were left to evaporate. 5 g of the resulting samples was transferred to high density polyethylene tubes.
Combinations of sensor molecule (9) in different organic solvents were added to spiked and control samples, and the results were compared. Water was also added to see if a biphasic system was beneficial for extraction from soil. • A=20 mL dichloromethane+medium chain sensor (9) • B=10 mL of water-->20 mL dichloromethane+medium chain sensor (9) • C=20 mL ethyl acetate+medium chain sensor (9) • D=20 mL toluene+medium chain sensor (9)
Dried soil samples (5 g) were also combined with 20 mL of host (9) in dichloromethane and shaken to show a colour change observable in the solvent.

[3] = Anion selectivity screening with TBA salts, UV-Vis; type: binding; conditions: dichloromethane
Method: The selectivity of the host (9) for anions was investigated visually and spectroscopically. The TBA salts of anions commonly found in significant concentrations in water samples were added in 10 molar equivalents to solutions of host to give preliminary indications of host−guest interactions prior to more extensive investigation. Although not an accurate proxy of real-world matrix concentrations, it was thought that the binding of any anions would indicate any affinity for other anions.

[4] = Colorimetric matching of a PFCA sample, organic; conditions: CIE76
Method: To probe the sensitivity of this technique visually, a colour chart based on the response of host (12) to known concentrations of PFOA was tested against another PFCA. The PFCA was chosen to be PFHxA, as PFOA was used for the calibration process. Samples of PFHxA (4 ppm) were prepared and combined with host (12). The average colour from triplicate experiments was compared to a calibration chart. The RGB values for host (12) were collected at six concentrations of PFOA. To make a direct comparison to the 4 ppm PFHxA sample, a colour chart was generated by fitting four colour points between the measured values for 0 and 5 ppm of PFOA. The generated RGB value for the 4 ppm PFOA was then compared to the measured RGB value for the 4 ppm PFHxA sample. […] The 3 and 5 ppm PFOA colours had ΔE values of 10.3 and 9.5 respectively, making the 4 ppm colour the most suitable match.

[5] = Colorimetric matching of mixed PFCA samples, low concentration
Method: In the “low” PFCA concentration experiment, the RGB response values had the greatest rate of change from 0-40 ppb PFOA and appeared to level out between 40-80 ppb PFOA. In that instance, the regression was fit for a host : guest ratio of 0-0.8. To probe the sensor's response to a mixture of PFCAs, samples containing combinations of PFHxA, PFHpA, and PFDA in dichloromethane (7-28 ppb) were prepared and the RGB responses were collected. The PFCA concentrations for the samples were predicted using the PFOA regression (y=0.0591 ln(x)+0.037, R^2=0.9771).
The lowest concentration PFCA sample (7 ppb) was predicted to be ca. 11 ppb (58% error) from the PFOA regression, whilst the higher concentration mixed PFCA samples (14.1 and 28.8 ppb) were predicted to be ca. 16 and 23 ppb (17 and 18% error respectively). Thus, host (12) may be coupled with a phone camera to estimate mixed PFCA concentrations from RGB data with <20% error, or used visually for threshold detection of total PFCA concentrations above 10 ppb.

[6] = RGB response curve, high PFCA concentration; conditions: host 5.01×10^−6 M, dichloromethane
Description: The present inventors investigated the colorimetric responses for host (12) with “high” concentrations of PFCA (where [host]<[guest]), and “low” concentrations of PFCA (where [host]>[guest]). Generally, RGB response values will increase with increasing concentrations of PFCA until the host has been saturated; beyond the saturation limit, RGB response values are similar. When there was an excess of guest, the response values could only be used as a threshold indication for PFCA concentrations.
RGB response curves were established by combining solutions of host (12) (5.01×10^−6 M) with solutions of PFOA (0-16 ppm, 3.86×10^−5 M) in dichloromethane. […] Thus, when establishing a calibration curve, the relative proportion of free host to host−PFCA complex limiting the variability of colour response must be considered for the application.
For the “high” PFCA concentration experiment, the PFOA generated calibration curve (y=0.0401 ln(x)+0.2366, R^2=0.9677) (FIG. 17) begins to level out at ca. 2 ppm. Above that concentration, the RGB response values are difficult to differentiate.

Compound	colour change of host solution ([1]; addition of solid TBAPFO to red-brown host solution in dichloromethane)	colour change of host solution, biphasic ([1]; host in dichloromethane (0.0124 mmol, 5 mL) and TBAPFO 3 ppm in water (500 mL))	colour change of host-soaked filter paper (Filter paper tests)	colour of host solution after transfer to HDPP tube ([2]; after 24 hours)	colour of host solution ([2]; host 2.04×10^−5 M in dichloromethane added to aqueous GenX 5 ppm)	colour change with soil sample (Soil tests)	shift in the Q band ([3]; 10 molar equivalents of TBA salt)	UV-Vis change after addition of anion ([3]; 10 molar equivalents of TBA salts)	ΔE, PFOA chart colour vs 4 ppm PFHxA sample ([4]; 3 ppm PFOA colour)	ΔE, PFOA chart colour vs 4 ppm PFHxA sample ([4]; 4 ppm PFOA colour)	ΔE, PFOA chart colour vs 4 ppm PFHxA sample ([4]; 5 ppm PFOA colour)	average ΔE of mixed PFCA samples vs host solution ([5]; 7-28 ppb)	concentration predicted from PFOA regression ([5]; 7 ppb PFCA sample)	concentration predicted from PFOA regression ([5]; 14.1 ppb mixed PFCA sample)	concentration predicted from PFOA regression ([5]; 28.8 ppb mixed PFCA sample)	ΔE (Host − PFCA) ([5]; PFCAs 7 ppb)	ΔE (Host − PFCA) ([5]; PFCAs 14 ppb)	ΔE (Host − PFCA) ([5]; PFCAs 28 ppb)	PFOA concentration at which calibration curve begins to level out [6]
O=C(Nc1ccccc1-c1c2nc(c(-c3ccccc3NC(=O)C(F)(F)C(F)(F)C(F)(F)C(F)(F)C(F)(F)C(F)(F)C(F)(F)F)c3ccc([nH]3)c(-c3ccccc3NC(=O)C(F)(F)C(F)(F)C(F)(F)C(F)(F)C(F)(F)C(F)(F)C(F)(F)F)c3nc(c(-c4ccccc4NC(=O)C(F)(F)C(F)(F)C(F)(F)C(F)(F)C(F)(F)C(F)(F)C(F)(F)F)c4ccc1[nH]4)C=C3)C=C2)C(F)(F)C(F)(F)C(F)(F)C(F)(F)C(F)(F)C(F)(F)C(F)(F)F [host (9), α,α,α,α-5,10,15,20-tetrakis(2-(pentadecafluorooctanoylamino)phenyl)porphyrin]	changed colour to green	colour change of the host solution could also be observed	A colour change was discernible	significant reduction in the intensity of the green colour	immediately became a vibrant green colour	discernible by the naked eye	~32 nm	no significant change											
O=C(Nc1ccccc1-c1c2nc(c(-c3ccccc3NC(=O)C(F)(F)C(F)(F)C(F)(F)C(F)(F)C(F)(F)C(F)(F)C(F)(F)C(F)(F)C(F)(F)C(F)(F)C(F)(F)F)c3ccc([nH]3)c(-c3ccccc3NC(=O)C(F)(F)C(F)(F)C(F)(F)C(F)(F)C(F)(F)C(F)(F)C(F)(F)C(F)(F)C(F)(F)C(F)(F)C(F)(F)F)c3nc(c(-c4ccccc4NC(=O)C(F)(F)C(F)(F)C(F)(F)C(F)(F)C(F)(F)C(F)(F)C(F)(F)C(F)(F)C(F)(F)C(F)(F)C(F)(F)F)c4ccc1[nH]4)C=C3)C=C2)C(F)(F)C(F)(F)C(F)(F)C(F)(F)C(F)(F)C(F)(F)C(F)(F)C(F)(F)C(F)(F)C(F)(F)C(F)(F)F [host (12), α,α,α,α-5,10,15,20-tetrakis(2-(tricosafluorododecanoylamino)phenyl) porphyrin]									10.3	7.3	9.5	> 10	ca. 11 ppb	ca. 16 ppb	~23 ppb	11	11	12	ca. 2 ppm
